In PubChem BioAssay AID248 (DTP/NCI, 2004):
Values joined by “and” are separate entries in the source; they are usually repeats but may differ in a detail not shown here. Equal values may be shown once. Inconclusive results and toxic doses are left out. Cut-off read from the data, not from the text of the source: active = T/C of 150% or more; inactive = T/C below 125%.

Test system: L1210 leukemia ip in BDF1 mice, survival T/C
Experiment: NCI In Vivo Anticancer Drug Screen. Data for tumor model L1210 Leukemia (intraperitoneal) in B6D2F1 (BDF1) mice
Details: endpoint: mean survival time, higher = longer survival
Outline: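 Tumor was transplanted into mice, which were then dosed with test compound or vehicle alone. Survival was recorded for each group, and the treated figure was expressed relative to the control figure.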

[1] = dose: 100.0 mg/kg/injection, schedule: Q01DX001 (ip), vehicle: carboxymethylcellulose (CMC)
[2] = dose: 200.0 mg/kg/injection, schedule: Q01DX001 (ip), vehicle: carboxymethylcellulose (CMC)
[3] = dose: 400.0 mg/kg/injection, schedule: Q01DX001 (ip), vehicle: carboxymethylcellulose (CMC)
[4] = dose: 100.0 mg/kg/injection, schedule: Q04DX003 (ip), vehicle: saline with Tween-80
[5] = dose: 200.0 mg/kg/injection, schedule: Q04DX003 (ip), vehicle: saline with Tween-80

Measured: T/C

CCN(CC)CCCC(Nc1c2ccc(Cl)cc2nc2ccc(OC)cc12)c1ccc(F)cc1 (centres undefined)
inactive: dose: 9.0 mg/kg/injection, schedule: Q01DX Z (ip), vehicle: methylcellulose (MC) 86 % of control | dose: 15.0 mg/kg/injection, schedule: Q01DX Z (ip), vehicle: methylcellulose (MC) 95 % of control | dose: 20.0 mg/kg/injection, schedule: Q01DX Z (ip), vehicle: methylcellulose (MC) 86 % of control | dose: 30.0 mg/kg/injection, schedule: Q01DX Z (ip), vehicle: methylcellulose (MC) 89 % of control

O=C(O)c1cc(I)c(OCc2ccccc2)c(I)c1
inactive: [1] 100 % of control | [2] 94 % of control | [3] 96 % of control

CNC1C(O)C(OC)OC2COC(c3ccccc3)OC21 (centres undefined)
inactive: [4] 93 % of control | [5] 93 % of control

CC1C[N+](C)=C2CCCCC2=C1N (centres undefined)
inactive: dose: 6.25 mg/kg/injection, schedule: Q01DX009 (ip), vehicle: saline 105 % of control | dose: 6.25 mg/kg/injection, schedule: Q04DX003 (ip), vehicle: saline 96 % of control | dose: 12.5 mg/kg/injection, schedule: Q01DX009 (ip), vehicle: saline 98 % of control | dose: 12.5 mg/kg/injection, schedule: Q04DX003 (ip), vehicle: saline 98 % of control | dose: 25.0 mg/kg/injection, schedule: Q01DX009 (ip), vehicle: saline 102 % of control | dose: 25.0 mg/kg/injection, schedule: Q04DX003 (ip), vehicle: saline 108 % of control

COc1ccc(C(c2ccc(OC)cc2)c2cccc([N+](=O)[O-])c2)cc1
inactive: [4] 97 % of control | [5] 92 % of control

O=C1CCCCC1C(O)(C(=O)c1ccccc1)c1ccccc1 (centres undefined)
inactive: dose: 100.0 mg/kg/injection, schedule: Q04DX002 (ip), vehicle: Klucel (hydroxypropylcellulose) (HPC) 100 % of control | dose: 200.0 mg/kg/injection, schedule: Q04DX002 (ip), vehicle: Klucel (hydroxypropylcellulose) (HPC) 96 % of control | dose: 400.0 mg/kg/injection, schedule: Q04DX002 (ip), vehicle: Klucel (hydroxypropylcellulose) (HPC) 100 % of control

CCNC(C)(C)C(=O)c1ccco1
inactive: dose: 50.0 mg/kg/injection, schedule: Q01DX009 (ip), vehicle: saline 94 % of control | dose: 100.0 mg/kg/injection, schedule: Q01DX009 (ip), vehicle: saline 100 % of control | dose: 200.0 mg/kg/injection, schedule: Q01DX009 (ip), vehicle: saline 94 % of control

COc1ccc(C[n+]2cccc(CNC(=O)COc3ccc(Cl)c(Cl)c3)c2)cc1
inactive: dose: 25.0 mg/kg/injection, schedule: Q04DX003 (ip), vehicle: Klucel (hydroxypropylcellulose) (HPC) 98 % of control | dose: 50.0 mg/kg/injection, schedule: Q04DX003 (ip), vehicle: Klucel (hydroxypropylcellulose) (HPC) 106 % of control | dose: 100.0 mg/kg/injection, schedule: Q04DX003 (ip), vehicle: Klucel (hydroxypropylcellulose) (HPC) 107 % of control and 108 % of control

CSc1ncnc2c1ncn2NC(=O)C1CC(=O)N(C)C1 (centres undefined)
inactive: dose: 100.0 mg/kg/injection, schedule: Q01DX001 (ip), vehicle: saline 107 % of control | dose: 200.0 mg/kg/injection, schedule: Q01DX001 (ip), vehicle: saline 103 % of control | dose: 400.0 mg/kg/injection, schedule: Q01DX001 (ip), vehicle: saline 100 % of control

C/C(=N\Nc1ccccc1)C(C)C
inactive: dose: 75.0 mg/kg/injection, schedule: Q04DX003 (ip), vehicle: Klucel (hydroxypropylcellulose) (HPC) 118 % of control | dose: 150.0 mg/kg/injection, schedule: Q04DX003 (ip), vehicle: Klucel (hydroxypropylcellulose) (HPC) 94 % of control | dose: 300.0 mg/kg/injection, schedule: Q04DX003 (ip), vehicle: Klucel (hydroxypropylcellulose) (HPC) 96 % of control

COc1cc2c(cc1OC)-c1nc(C)sc1CC2
inactive: [4] 98 % of control | [5] 95 % of control | dose: 400.0 mg/kg/injection, schedule: Q04DX003 (ip), vehicle: saline with Tween-80 98 % of control

Cn1c(=O)oc2ccccc2c1=S
inactive: dose: 100.0 mg/kg/injection, schedule: Q04DX003 (ip), vehicle: saline 96 % of control | dose: 200.0 mg/kg/injection, schedule: Q04DX003 (ip), vehicle: saline 100 % of control | dose: 400.0 mg/kg/injection, schedule: Q04DX003 (ip), vehicle: saline 100 % of control

C=C(C)[C@H]1Cc2c(ccc3c2O[C@@H]2COc4cc(OC)c(OC)cc4[C@@H]2C3=O)O1
inactive: dose: 0.25 mg/kg/injection, schedule: Q01DX Z (ip), vehicle: other 95 % of control | dose: 0.5 mg/kg/injection, schedule: Q01DX Z (ip), vehicle: other 97 % of control | dose: 0.5 mg/kg/injection, schedule: Q02DX Z (ip), vehicle: water 96 % of control | dose: 0.75 mg/kg/injection, schedule: Q01DX Z (ip), vehicle: other 95 % of control | dose: 0.75 mg/kg/injection, schedule: Q02DX Z (ip), vehicle: water 101 % of control | dose: 1.0 mg/kg/injection, schedule: Q01DX Z (ip), vehicle: other 88 % of control | dose: 1.0 mg/kg/injection, schedule: Q02DX Z (ip), vehicle: water 102 % of control | dose: 2.0 mg/kg/injection, schedule: Q01DX015 (ip), vehicle: saline 97 % of control | dose: 2.0 mg/kg/injection, schedule: Q02DX Z (ip), vehicle: water 107 % of control | dose: 4.0 mg/kg/injection, schedule: Q01DX015 (ip), vehicle: saline 101 % of control | dose: 8.0 mg/kg/injection, schedule: Q01DX015 (ip), vehicle: saline 109 % of control | dose: 16.0 mg/kg/injection, schedule: Q01DX015 (ip), vehicle: saline 109 % of control

N=Nc1ccc2c(O)c3ccccc3c(O)c2c1
inactive: [1] 107 % of control | dose: 100.0 mg/kg/injection, schedule: Q01DX009 (ip), vehicle: carboxymethylcellulose (CMC) 100 % of control and 103 % of control | dose: 100.0 mg/kg/injection, schedule: Q04DX002 (ip), vehicle: saline 103 % of control | dose: 100.0 mg/kg/injection, schedule: Q04DX003 (ip), vehicle: carboxymethylcellulose (CMC) 101 % of control | [2] 104 % of control | dose: 200.0 mg/kg/injection, schedule: Q01DX009 (ip), vehicle: carboxymethylcellulose (CMC) 98 % of control and 100 % of control | dose: 200.0 mg/kg/injection, schedule: Q04DX002 (ip), vehicle: saline 105 % of control and 106 % of control | dose: 200.0 mg/kg/injection, schedule: Q04DX003 (ip), vehicle: carboxymethylcellulose (CMC) 98 % of control | [3] 105 % of control | dose: 400.0 mg/kg/injection, schedule: Q01DX009 (ip), vehicle: carboxymethylcellulose (CMC) 94 % of control and 96 % of control | dose: 400.0 mg/kg/injection, schedule: Q04DX002 (ip), vehicle: saline 97 % of control and 105 % of control | dose: 400.0 mg/kg/injection, schedule: Q04DX003 (ip), vehicle: carboxymethylcellulose (CMC) 101 % of control

CC(C)(C)N=C1OC(=O)c2ccccc21
inactive: dose: 100.0 mg/kg/injection, schedule: Q01DX009 (ip), vehicle: saline with Tween-80 107 % of control | dose: 200.0 mg/kg/injection, schedule: Q01DX009 (ip), vehicle: saline with Tween-80 98 % of control | dose: 400.0 mg/kg/injection, schedule: Q01DX009 (ip), vehicle: saline with Tween-80 94 % of control

CS(=O)c1ccc2c(c1)-c1ccccc1C2=O (centres undefined)
inactive: dose: 50.0 mg/kg/injection, schedule: Q01DX001 (ip), vehicle: carboxymethylcellulose (CMC) 95 % of control | [1] 101 % of control | [2] 95 % of control | [3] 101 % of control
